Legend:
[1] = Dog cassette dosing pharmacokinetics; type: in vivo, beagle dogs; details: male, beagle, plasma, IV; for Vd: read-out: Vss; for half-life: read-out: t½ (converted)
Protocol: Non-naïve male beagle dogs (8 months to 3 years of age, body weight 8-14 kg) sourced from Jiangsu Johnsen Bioresource CO. and/or Beijing Rixinkeji CO., LTD and/or Beijing Marshall Biotechnology CO., LTD were used in this study. All animals for IV administration had free access to food and water. The IV dose solution was prepared in 10% DMA/50% PG/40% HPβCD solution (40% w/v aqueous HPβCD) at a concentration of 0.2 mg/mL. Concentrations of IV dose was measured at the end of the study. PK parameters were calculated using the nominal dose values if the measured values were within 20% of the nominal values. Blood samples were collected by venipuncture of peripheral veins except the dosing vein at pre-dose, 5 15, 30 min, 1, 2, 4, 6, 8 and 24 h post-dose. Blood samples were centrifuged and resultant plasma was frozen for bioanalysis. Plasma samples were stored at −80° C. before analysis. Plasma samples were analyzed for compound concentrations using the LC/MS/MS method. Briefly, a 50 μL aliquot of each plasma sample was mixed with 100 μL of acetonitrile that contained an internal standard. The mixture was vortexed and centrifuged. Ten (10) μL of the resulting solution was injected onto a reverse-phase C18 column and the resultant peaks detected on a LC/MS/MS equipped with a turbo ionspray ionization source. Sample concentrations below the limit of quantification (BLQ) were treated as zero for PK calculations. PK parameters were estimated from individual animals using noncompartmental analysis of the concentration-time data (Phoenix WinNonLin software, version 64; Pharsight, Mountain View, CA). The elimination rate constant (k) was calculated as the absolute value of the slope of the linear regression of logarithm (log) of the concentration versus time for the last three data points of the concentration-time profiles. Apparent elimination half-life (t1/2) values were calculated as ln(2)/k. Area under the concentration-time curve (AUC) values were estimated using linear trapezoidal method. AUCt values were calculated from the dosing time to the last measurable concentration. AUC∞ values were calculated as the sum of the corresponding AUCt and the ratio of the last detectable concentration divided by k. Plasma clearance (CL) was calculated from Dose/AUC∞. Mean resident time extrapolated to infinity (MRT∞) was estimated by moment analysis. Vss was calculated from MRT∞×CL. Maximum concentration (Cmax) and time to reach Cmax (tmax) were recorded as observed. As this was a cross-over study, bioavailability was calculated dAUC∞,po/dAUC∞,iv×100% where dAUC was the dose normalized AUC value from the same animal given IV and PO dose. Data for compounds tested are provided in Table G. Compounds tested were prepared in accordance with the synthetic procedures described herein.

[2] = Monkey cassette dosing pharmacokinetics; type: in vivo; details: IV; for clearance / Vd: male, plasma; for Vd: read-out: Vss
[3] = test system: bovine cardiac myofibrils; assay: Myofibril assay (ATPase activity of skinned bovine cardiac myofibrils, PK/LDH-coupled); type: biochemical; details: inhibition of steady-state ATPase of bovine cardiac myofibrils; CaCl2 for 50% or 75% activation
Protocol: To evaluate the effect of compounds on the ATPase activity of full-length cardiac myosin in the context of the native sarcomere, skinned myofibril assays were performed. Bovine cardiac myofibrils were obtained by homogenizing bovine cardiac left ventricular tissue in the presence of a detergent such as triton X-100. Such treatment removes membranes and a majority of the soluble cytoplasmic proteins but leaves intact the cardiac sarcomeric acto-myosin apparatus. Myofibril preparations retain the ability to hydrolyze ATP in a Ca^2+ regulated manner. ATPase activities of such myofibril preparations in the presence and absence of compounds were assayed at Ca^2+ concentrations activating to a defined fraction of the maximal rate (i.e., […], 75%). Small molecule agents were assessed for their ability to inhibit the steady-state ATPase activity of bovine cardiac myofibrils using pyruvate kinase and lactate dehydrogenase (PK/LDH)-coupled enzyme system. This assay regenerates myosin-produced ADP into ATP by oxidizing NADH, producing an absorbance change at 340 nm. Prior to testing small molecule agents, the bovine cardiac myofibrils were assessed for their calcium responsiveness and the calcium concentration that achieves either a 50% (pCa50) or 75% (pCa75) activation of the myofibril system was chosen as the final condition for assessing the inhibitory activity of the small molecule agents. All enzymatic activity was measured in a buffered solution containing 12 mM PIPES (piperazine-N,N′-bis(2-ethanesulfonic acid), 2 mM magnesium chloride at pH 6.8 (PM 12 buffer). Final assay conditions were 1 mg/mL of bovine cardiac myofibrils, 4 U/mL pyruvate kinase, 6 U/mL lactate dehydrogenase, 50 μM ATP, 0.1 mg/mL BSA (bovine serum albumin), 10 ppm antifoam, 1 mM DTT, 0.5 mM NADH, 1.5 mM PEP, 0.6 mM EGTA, and an amount of CaCl2 sufficient to achieve either 50% or 75% activation of the myofibril ATPase activity. Results for compounds tested are provided in Table A. Compounds tested were prepared in accordance with the synthetic procedures described herein.

[4] = Rat single dose pharmacokinetics; type: in vivo, Sprague Dawley rats; details: male, Sprague Dawley, plasma, IV; for Vd: read-out: Vss
Protocol: Male Sprague Dawley rats were obtained from Zhejiang Vital River Laboratory Animal Technology Co., Ltd. The animals in IV group had free access to water and food. The animals in PO group were fasted overnight before dosing and provided with food 2 hours post dosing. The IV dose solution was prepared in 10% DMA/50% PG/40% HPβCD solution (40% w/v aqueous HPβCD) at a concentration of 1 mg/mL. The oral dosing suspension was prepared by suspending Test Article in 0.5% HPMC/0.1% Tween 80 in water at a concentration 0.2 mg/mL. Concentrations of IV and PO doses were measured at the end of the study. Pharmacokinetic parameters were calculated using the nominal dose values if the measured values were within 20% of the nominal values. Three rats were dosed IV via a bolus injection via caudal vein. Three rats per dose group were dosed by oral gavage. Blood samples were collected from the jugular vein cannula at predose, 5 (IV only), 15, 30 minutes, and 1, 2, 4, 6, and 24 hours post-dose. Blood volumes were replaced with an equal amount of sterile 0.9% saline. Blood samples were centrifuged and the collected plasma was stored at −80° C. for subsequent analysis. Plasma samples were analyzed for Test Article concentrations using a LC/MS/MS method. Briefly, a 50 μL aliquot of each plasma sample was mixed with 100 μL of acetonitrile that contained an internal standard. The mixture was vortexed and centrifuged. Ten (10) […] of the resulting solution was injected onto a reverse-phase C18 column and the resultant peaks detected on a LC/MS/MS equipped with a turbo ionspray ionization source. Sample concentrations below the limit of quantification (BLQ) were treated as zero for pharmacokinetic calculations. Pharmacokinetic parameters were estimated from individual animals using noncompartmental analysis of the concentration-time data (Phoenix WinNonLin software, version 64; Pharsight, Mountain View, CA). The elimination rate constant (k) was calculated as the absolute value of the slope of the linear regression of logarithm (log) of the concentration versus time for the last three data points of the concentration-time profiles. Apparent elimination half-life (t1/2) values were calculated as ln(2)/k. Area under the concentration-time curve (AUC) values were estimated using linear trapezoidal method. AUCt values were calculated from the dosing time to the last measurable concentration. AUC∞ values were calculated as the sum of the corresponding AUCt and the ratio of the last detectable concentration divided by k (AUCt-∞). Plasma clearance (CL) was calculated from Dose/AUC∞. Mean resident time (MRT) was estimated by moment analysis. Volume of distribution at steady state (Vss) was calculated from MRT∞×CL. Maximum concentration (Cmax) and time to reach Cmax (tmax) were recorded as observed. Bioavailability was calculated from the ratio of dose normalized AUC∞,po of individual rats/mean dAUC∞,iv×100% where dAUC was the dose normalized AUC value. Compounds tested were prepared in accordance with the synthetic procedures described herein.

Row | SMILES | clearance [1] | Vd [1] | half-life [1] | t l/2 [2] | clearance [2] | Vd [2] | CDMF IC15 [3] | clearance [4] | half-life [4] | Vd [4]
1 | CC[C@H]1CC[C@H](N2CC(=O)N(Cc3ccc(F)c(F)c3)C3(CN(C(N)=O)C3)C2=O)CC1 [Compound 11, 5-(3,4-difluorobenzyl)-8-((1r,4r)-4-ethylcyclohexyl)-6,9-dioxo-2,5,8-triazaspiro[3.5]nonane-2-carboxamide] | 6.3 mL/min/kg | 4.42 L/kg | 9.66 h | 3.03 h | 33.1 mL/min/kg | 7.26 L/kg | 700 nM | – | – | –
2 | C[C@H]1CC[C@H](N2CC(=O)N(Cc3ccc(F)c(F)c3)C3(CN(c4cccnn4)C3)C2=O)CC1 [Compound 12, 5-(3,4-difluorobenzyl)-8-((1r,4r)-4-methylcyclohexyl)-2-(pyridazin-3-yl)-2,5,8-triazaspiro[3.5]nonane-6,9-dione] | 34.4 mL/min/kg | 17.8 L/kg | 7.39 h | – | – | – | 400 nM | – | – | –
3 | C[C@H]1CC[C@H](N2CC(=O)N(Cc3ccc(Cl)cc3)C3(CN(c4cccnn4)C3)C2=O)CC1 [Compound 10, 5-(4-chlorobenzyl)-8-((1r,4r)-4-methylcyclohexyl)-2-(pyridazin-3-yl)-2,5,8-triazaspiro[3.5]nonane-6,9-dione] | 36.3 mL/min/kg | 18.6 L/kg | 9.38 h | – | – | – | 300 nM | – | – | –
4 | CC[C@H]1CC[C@H](N2CC(=O)N(Cc3ccc(Cl)cc3)C3(CN(C(N)=O)C3)C2=O)CC1 [Compound 1, 5-(4-chlorobenzyl)-8-((1r,4r)-4-ethylcyclohexyl)-6,9-dioxo-2,5,8-triazaspiro[3.5]nonane-2-carboxamide] | 3.65 mL/min/kg | 3.44 L/kg | 12.5 h | – | – | – | 800 nM | – | – | –
5 | C[C@H]1CC[C@H](N2CC(=O)N(Cc3ccc(Cl)c(F)c3)C3(CN(C(N)=O)C3)C2=O)CC1 [Compound 3, 5-(4-chloro-3-fluorobenzyl)-8-((1r,4r)-4-methylcyclohexyl)-6,9-dioxo-2,5,8-triazaspiro[3.5]nonane-2-carboxamide] | 7.16 mL/min/kg | 6.9 L/kg | 13.1 h | – | – | – | 700 nM | 78.5 mL/min/kg | 2.6 h | 14.7 L/kg
6 | CC[C@H]1CC[C@H](N2CC(=O)N(Cc3ccc(F)cc3)C3(CN(C(N)=O)C3)C2=O)CC1 [Compound 2, 8-((1r,4r)-4-ethylcyclohexyl)-5-(4-fluorobenzyl)-6,9-dioxo-2,5,8-triazaspiro[3.5]nonane-2-carboxamide] | 4.06 mL/min/kg | 1.99 L/kg | 7.34 h | – | – | – | 2100 nM | – | – | –
7 | CC(C)N1CC(=O)N(Cc2ccc(F)c(Cl)c2)C2(CN(c3cccnn3)C2)C1=O [Compound 9, 5-(3-chloro-4-fluorobenzyl)-8-isopropyl-2-(pyridazin-3-yl)-2,5,8-triazaspiro[3.5]nonane-6,9-dione] | 13.9 mL/min/kg | 3.08 L/kg | 3.65 h | 1.59 h | 15.2 mL/min/kg | 1.88 L/kg | 1600 nM | 27.4 mL/min/kg | 0.925 h | 1.64 L/kg

Next, values leading:

Row | clearance [1] | Vd [1] | half-life [1] | t l/2 [2] | clearance [2] | Vd [2] | CDMF IC15 [3] | clearance [4] | half-life [4] | Vd [4] | SMILES
8 | 33 mL/min/kg | 7.08 L/kg | 3.07 h | – | – | – | 900 nM | – | – | – | CC[C@H](C)N1CC(=O)N(Cc2ccc(F)c(C)c2)C2(CN(c3cccnn3)C2)C1=O [Compound 16, (S)-8-(sec-butyl)-5-(4-fluoro-3-methylbenzyl)-2-(pyridazin-3-yl)-2,5,8-triazaspiro[3.5]nonane-6,9-dione]
9 | 36.5 mL/min/kg | 6.44 L/kg | 2.43 h | 1.1 h | 17.1 mL/min/kg | 1.48 L/kg | 1300 nM | – | – | – | CC[C@H](C)N1CC(=O)N(Cc2ccc(F)c(F)c2)C2(CN(c3cccnn3)C2)C1=O [Compound 14, (S)-8-(sec-butyl)-5-(3,4-difluorobenzyl)-2-(pyridazin-3-yl)-2,5,8-triazaspiro[3.5]nonane-6,9-dione]
10 | 41.9 mL/min/kg | 8.25 L/kg | 3.02 h | – | – | – | 900 nM | – | – | – | C[C@H]1CC[C@H](N2CC(=O)N(Cc3ccc(F)cc3)C3(CN(c4cccnn4)C3)C2=O)CC1 [Compound 17, 5-(4-fluorobenzyl)-8-((1r,4r)-4-methylcyclohexyl)-2-(pyridazin-3-yl)-2,5,8-triazaspiro[3.5]nonane-6,9-dione]
11 | 24.2 mL/min/kg | 2.84 L/kg | 1.49 h | – | – | – | 1400 nM | – | – | – | CCC(CC)N1CC(=O)N(Cc2ccc(F)c(F)c2)C2(CN(c3cccnn3)C2)C1=O [Compound 15, 5-(3,4-difluorobenzyl)-8-(pentan-3-yl)-2-(pyridazin-3-yl)-2,5,8-triazaspiro[3.5]nonane-6,9-dione]
